Source: patent publication EP0326331B1, “Substituted quinolines and cinnolines” (Dow AgroSciences LLC, priority 1988, dated 1989)

Experiments:
Type in all cases: in vivo
[1] = tested on: Cercospora beticola (leaf spot); assay: Test 1 greenhouse foliar spray screen, leaf spot on sugar beet; conditions: for pest or weed control at 400 ppm: Cercospora beticola, Test 1, foliar spray on sugar beet, disease control rating at 400 ppm / 100 ppm
[2] = tested on: Septoria tritici (leaf blotch); assay: Test 1 greenhouse foliar spray screen, leaf blotch on wheat; conditions: for pest or weed control at 400 ppm: Zymoseptoria tritici, Test 1, foliar spray on wheat, disease control rating at 400 ppm / 100 ppm, read-out: LEAF BLOT
[3] = tested on: Botrytis cinerea (gray mold); assay: Test 1 greenhouse foliar spray screen, gray mold on grape berries; conditions: for pest or weed control at 400 ppm: Botrytis cinerea, foliar, Test 1, spray on grape berries, disease control rating at 400 ppm / 100 ppm
[4] = tested on: Puccinia recondita tritici (leaf rust); assay: Test 1 greenhouse foliar spray screen, leaf rust on wheat; conditions: for pest or weed control at 400 ppm: Puccinia recondita, foliar, Test 1, foliar spray on wheat, disease control rating at 400 ppm / 100 ppm
[5] = tested on: southern armyworm (Spodopetra eridania Cramer); assay: Mite/insect screen, SAW; conditions: percent mortality; for mortality at 200 ppm / mortality at 400 ppm: Spodoptera eridania, foliar, foliar spray on squash, read-out: SAW RESULTS %; for mortality at 200 ppm: rate 200 ppm; for mortality at 400 ppm: rate 400 ppm
Outline: (§1)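 Compounds dissolved in acetone/alcohol (50:50) with TOXIMUL R and S emulsifiers, diluted in water to test concentrations, and sprayed to runoff on both leaf surfaces at 10 psi, then dried 1 h. For armyworm, excised treated leaves were offered to larvae; percent mortality scored after standard exposure periods.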

corn rootworm = assay: Mite/insect screen, CRW; conditions: percent mortality; for mortality at 12 ppm: CRW rate 12.00 ppm; for mortality at 12 ppm / mortality at 24 ppm: read-out: CRW RESULTS %; for mortality at 24 ppm: CRW rate 24.00 ppm
Outline: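 Compounds dissolved in 50:50 acetone/alcohol with TOXIMUL R and S emulsifiers (23 and 13 g/L), then diluted in water to the stated test concentrations. Percent mortality of corn rootworm scored after standard exposure periods.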

[6] = tested on: Erysiphe graminis tritici (powdery mildew); assay: Test 1 greenhouse foliar spray screen, powdery mildew on wheat; conditions: for pest or weed control at 400 ppm: Blumeria graminis, foliar, Test 1, foliar spray on wheat, disease control rating at 400 ppm / 100 ppm, read-out: POWD MDEW
[7] = tested on: Pseudoperonospora cubensis (downy mildew); assay: Test 1 greenhouse foliar spray screen, downy mildew on squash; conditions: for pest or weed control at 400 ppm: Pseudoperonospora cubensis, foliar, Test 1, foliar spray on squash, disease control rating at 400 ppm / 100 ppm, read-out: DOWN MDEW
[8] = tested on: Pyricularia oryzae (rice blast); assay: whole plant or invertebrate; conditions: for pest or weed control at 400 ppm: Pyricularia oryzae, foliar, read-out: RICE BLAST, Test 1, foliar spray on rice, disease control rating at 400 ppm / 100 ppm
[9] = tested on: melon aphids (Aphis gossypii Glover); assay: Mite/insect screen, MA; conditions: percent mortality; for mortality at 200 ppm / mortality at 400 ppm: Aphis gossypii, foliar, foliar spray on squash, read-out: MA RESULTS %; for mortality at 200 ppm: rate 200 ppm; for mortality at 400 ppm: rate 400 ppm; for MA RESULTS %: SAW
Outline: as §1

[10] = tested on: Venturia inaequalis (apple scab); assay: Test 1 greenhouse foliar spray screen, apple scab on apple seedling; conditions: for pest or weed control at 400 ppm: Venturia inaequalis, Test 1, foliar spray on apple seedling, disease control rating at 400 ppm / 100 ppm, read-out: APPL SCAB
[11] = tested on: Twospotted spider mites (Tetranychus urticae Koch); assay: Mite/insect screen, SM; conditions: for mortality at 200 ppm / mortality at 400 ppm: Tetranychus urticae, foliar, foliar spray on squash, read-out: SM RESULTS %; for mortality at 200 ppm / mortality at 400 ppm / SM RESULTS %: percent mortality; for mortality at 200 ppm: rate 200 ppm; for mortality at 400 ppm: rate 400 ppm; for activity as miticides: summary statement in the description; for SM RESULTS %: SAW
Outline: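 Compounds dissolved in 50:50 acetone/alcohol containing sulfonate/nonionic emulsifier blends, then diluted with water to the indicated concentrations. Leaves sprayed on both surfaces to runoff at 10 psi and dried one hour. Percent mortality scored after standard exposure periods.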

[12] = disease control rating, foliar spray on wheat, 400 ppm (+++ at 100 ppm)

Compound | pest or weed control at 400 ppm [1] [%] | pest or weed control at 400 ppm [2] [%] | pest or weed control at 400 ppm [3] [%] | pest or weed control at 400 ppm [4] [%] | mortality at 200 ppm [5] [%] | mortality at 12 ppm (corn rootworm) [%] | pest or weed control at 400 ppm [6] [%] | pest or weed control at 400 ppm [7] [%] | pest or weed control at 400 ppm [8] [%] | mortality at 200 ppm [9] [%] | pest or weed control at 400 ppm [10] [%] | mortality at 200 ppm [11] [%] | mortality at 400 ppm [5] [%] | mortality at 24 ppm (corn rootworm) [%] | mortality at 400 ppm [9] [%] | mortality at 400 ppm [11] [%] | activity as miticides [11] | further results
Fc1cccc2c(OCCc3cccs3)ccnc12 [Example 246, 8-fluoro-4-[2-(2-thienyl)ethoxy]quinoline] | 20 to 89 | 90 to 100 | 0 to 19 | 90 to 100 | 0 | 0 | 90 to 100 | 90 to 100 | 90 to 100 | 0 | 90 to 100 | 0 |  |  |  |  |  | 
Fc1cccc2c(OCCc3ccc4ccccc4c3)ccnc12 [Example 247, 8-fluoro-4-[2-(2-naphthyl)ethoxy]quinoline] | 0 to 19 | 90 to 100 | 0 to 19 | 90 to 100 | 20 | 0 | 90 to 100 | 20 to 89 | 90 to 100 | 0 | 0 to 19 | 90 | 50 | 0 | 0 | 0 | particularly excellent activity | activity against rice blast ([8]; summary statement in the description): particularly excellent activity
Cc1ccc(CCOc2ccnc3c(OCCc4ccc(C)cc4)cccc23)cc1 [Example 251, 4,8-bis[2-(4-methylphenyl)ethoxy]quinoline] | 0 to 19 | 0 to 19 | 0 to 19 | 0 to 19 | 0 | 0 | 0 to 19 | 20 to 89 | 20 to 89 | 0 | 0 to 19 | 0 |  |  |  |  |  | 
c1ccc(CCCc2ccnc3ccccc23)cc1 [Example 252, 4-(3-phenylpropyl)quinoline] | 0 to 19 | 20 to 89 | 0 to 19 | 90 to 100 | 0 | 0 | 90 to 100 | 90 to 100 | 90 to 100 | 100 | 20 to 89 | 90 | 0 | 0 | 100 | 90 |  | 
Fc1cccc2c(CCCc3ccccc3)ccnc12 [Example 253, 8-fluoro-4-(3-phenylpropyl)quinoline] | 20 to 89 | 20 to 89 | 0 to 19 | 90 to 100 | 0 | 0 | 90 to 100 | 90 to 100 | 90 to 100 | 90 | 90 to 100 | 100 | 0 | 0 | 100 | 100 | particularly excellent activity | 
Cc1ccc(CCCc2ccnc3c(F)cccc23)cc1 [Example 258, 8-fluoro-4-[3-(4-methylphenyl)propyl]quinoline] | 20 to 89 | 20 to 89 | 0 to 19 | 90 to 100 |  |  | 90 to 100 | 90 to 100 | 90 to 100 |  | 0 to 19 |  | 0 | 0 | 100 | 90 | particularly excellent activity | 
Fc1cccc2c(CCCc3cccc(C(F)(F)F)c3)ccnc12 [Example 259, 8-fluoro-4-[3-[3-(trifluoromethyl)phenyl]propyl]quinoline] | 0 to 19 | 90 to 100 | 20 to 89 | 90 to 100 | 0 | 0 | 20 to 89 | 90 to 100 | 90 to 100 | 90 | 90 to 100 | 100 | 0 | 0 | 80 | 80 | particularly excellent activity | 
Fc1cccc2c(CCCc3ccc(Cl)cc3)ccnc12 [Example 261, 4-[3-(4-chlorophenyl)propyl]-8-fluoroquinoline] | 0 to 19 | 20 to 89 | 0 to 19 | 90 to 100 | 100 | 0 | 20 to 89 | 20 to 89 | 20 to 89 | 100 | 20 to 89 | 90 | 80 | 100 | 100 | 50 |  | 
N-[2-(2,3,4,5,6-tetramethylphenyl)ethyl]-8-fluoro-4-quinolinamine [Example 112] |  |  |  |  |  |  |  |  |  |  |  |  |  |  |  |  |  | LEAF SPOT ([1]; disease control rating, foliar spray on sugar beet, 400 ppm (+++ at 100 ppm)): - (0-19% control at 400 ppm); LEAF BLOT [2, 12]: - (0-19% control at 400 ppm); GRAY MOLD ([3]; disease control rating, spray on grape berries, 400 ppm (+++ at 100 ppm)): - (0-19% control at 400 ppm); LEAF RUST [4, 12]: + (20-89% control at 400 ppm); SAW RESULTS % ([5]; SM & MA RATE 200 PPM): 0%; SAW RESULTS % ([5]; SM & MA RATE 400 PPM): 0%; CRW RESULTS % (corn rootworm; CRW RATE 12.00 PPM): 0%; CRW RESULTS % (corn rootworm; CRW RATE 24.00 PPM): 0%; POWD MDEW [6, 12]: - (0-19% control at 400 ppm); DOWN MDEW ([7]; disease control rating, foliar spray on squash, 400 ppm (+++ at 100 ppm)): +++ (90-100% control at 100 ppm); RICE BLAST ([8]; disease control rating, foliar spray on rice, 400 ppm (+++ at 100 ppm)): - (0-19% control at 400 ppm); MA RESULTS % ([9]; SM & MA RATE 200 PPM): 0%; MA RESULTS % ([9]; SM & MA RATE 400 PPM): 0%; APPL SCAB ([10]; disease control rating, foliar spray on apple seedling, 400 ppm (+++ at 100 ppm)): - (0-19% control at 400 ppm); SM RESULTS % ([11]; SM & MA RATE 200 PPM): 0%; SM RESULTS % ([11]; SM & MA RATE 400 PPM): 0%
